From patent US20180258100A1, “RAPAMYCIN ANALOGS SHOWING IMPROVED mTORC1 SPECIFICITY” (priority 2015, published 2018)

Key:
mTORC2 = biological target: T1, mTORC2 (Homo sapiens, UniProt P42345+P62942); assay: Western blot of PC3 cells, 24 h at 100 nM, comparison with commercial rapalogs, mTORC2 (p-Akt); type: cell-based; settings: PC-3, read-out: mTORC2 (p-Akt) activity, % of control
T1 construct: endogenous in cells; host or cells: PC3 cells
Method: (§1) PC3 cells were maintained in F12K media supplemented with 10% FBS, 1% Penicillin/Streptomycin, and 2 mM L-Glutamine and cultured at 37° C. Cells were treated with 100 nM Rapamycin, Temsirolimus, Everolimus, and rapalog compounds 390, 394, 824, 384 or 405 for 24 h and harvested in RIPA buffer (300 mM NaCl, 1.0% NP-40, 0.5% sodium deoxycholate, 0.1% SDS, 50 mM Tris pH 8.0. Protein concentrations were determined using the DC protein assay (Biorad).
(§2) Equal amounts of protein were resolved by SDS-PAGE and transferred to nitrocellulose membrane using the Invitrogen Nu-Page system. The membranes were blocked for 1 h in 5% milk and incubated overnight in the appropriate antibodies. The following day, blots were washed 3 times in TBST, incubated for 2 h with secondary antibodies (donkey anti rabbit hrp conjugated), and finally washed an additional 3 times in TBST. ECL Prime (Amersham) was used to detect the proteins of interest and blots were quantified using ImageJ software.

mTORC1 = biological target: T2, mTORC1 (Homo sapiens, UniProt P42345+P62942); assay: Western blot of PC3 cells, 24 h at 100 nM, comparison with commercial rapalogs, mTORC1 (p-S6K); type: cell-based
T2 construct: endogenous in cells; host or cells: PC3 cells
Method: as §1, §2

[1] = Fat mass by EchoMRI body composition after four weeks; type: in vivo, male C57BL/6J mice; settings: 4 weeks of every other day administration; rapamycin 8 mg/kg, compound 390 12 mg/kg; versus vehicle
Method: (§3) Fortyfive C57BL/6J male mice, housed three per cage, were weighed and their body composition was measured with an EchoMRI 3-in-1 system. Cages were sorted into three groups—vehicle, rapamycin, and compound 390—such that the average weight was similar for all three groups. Mice received every-other-day injections of either vehicle, rapamycin (8 mg/kg), or compound 390 (12 mg/kg). A glucose tolerance test was performed after 2 weeks (morning after the 8th injection). A pyruvate tolerance test was performed after 3 weeks. Glucose stimulated insulin secretion assay was performed after 4 weeks and additional blood was collected for whole blood analysis. Body composition was measured on day −2 and day 31.

[2] = Insulin challenge response; type: in vivo, female C57BL/6J mice; settings: 0.75 IU/kg insulin after 2 weeks; rapamycin 8 mg/kg, compound 390 12 mg/kg i.p. every other day
Method: FIG. 10. Response to insulin challenge following administration of 0.75 IU/kg insulin at t=2 weeks following the initiation of the intraperitoneal administrations of 8 mg/kg rapamycin, 12 mg/kg compound 390 or vehicle control every other day in female mice (N=5).
(§4) 10-week old female C57BL/6J mice were given intraperitoneal injections of 8 mg/kg rapamycin (LC laboratories), 12 mg/kg compound 390 or vehicle every other day for three weeks (N=5 mice/group), such as to mimic chronic exposure conditions. 24 hours after the last injection, tissues were dissected from the mice and immediately frozen in liquid nitrogen. The tissues were homogenized using the Omni TH homogenizer (Omni International) on ice in RIPA buffer and then centrifuged at 13,000 rpm for 15 minutes at 4° C. The supernatants were collected and protein concentration was determined using the DC protein assay (Biorad).

[3] = Glucose challenge response; type: in vivo, female C57BL/6J mice; settings: 2 mg/kg glucose after 1 week; rapamycin 8 mg/kg, compound 390 12 mg/kg i.p. every other day
Method: as §4
Steady state glucose levels were determined after one week from study initiation using a Bayer Contour blood glucose meter and test strips from small blood samples, which were withdrawn from a tail vein nick. […]

[4] = Steady state glucose levels after one week of i.p. dosing; type: in vivo, female C57BL/6J mice; settings: 8 mg/kg i.p. every other day
Method: as §4
Steady state glucose levels were determined after one week from study initiation using a Bayer Contour blood glucose meter and test strips from small blood samples, which were withdrawn from a tail vein nick. At the end of the second week, the animals were challenged by administration of 2 mg/kg glucose; glucose levels were determined for two hours following the challenge at 30 min intervals.

[5] = Plasma lipid levels after chronic i.p. dosing; type: in vivo, female C57BL/6J mice; settings: rapamycin 8 mg/kg, compound 390 12 mg/kg i.p. every other day; versus vehicle
Method: as §4
Plasma lipid levels were determined at the end of the three-week exposure. Free fatty acids in the serum were measured by the HR Series NEFA-HR(2) (Wako Diagnostics, Richmond, Va.). Triglycerides and cholesterol in serum were measured by Triglycerides Liquicolor Test and Cholesterol Liquicolor Test (Stanbio laboratory, Boerne, Tex.), respectively.

[6] = Glucose tolerance test after 2 weeks of chronic dosing; type: in vivo, male C57BL/6J mice; settings: rapamycin 8 mg/kg, compound 390 12 mg/kg every other day, male mice
Method: as §3, with “Cages were sorted into three groups—vehicle, rapamycin, and compound 390—such that the average weight was similar for all three groups.” left out
Mice were fasted overnight for 16 hours and then injected with either glucose (1 g/kg) or pyruvate (2 g/kg) intraperitoneally. For glucose and pyruvate tolerance tests, small blood samples were taken from a tail vein nick at time intervals and read using a Bayer Contour blood glucose meter and test strips. For glucose-stimulated insulin secretion, blood glucose levels were read using a glucometer and then 50 μL of blood was collected into a heparinized tube immediately prior to and 15 minutes following glucose administration. Insulin levels were determined using a Mouse Insulin ELISA kit (Crystal Chem).

T1 sequence (P62942 2-108 limits assumed, other chains not shown): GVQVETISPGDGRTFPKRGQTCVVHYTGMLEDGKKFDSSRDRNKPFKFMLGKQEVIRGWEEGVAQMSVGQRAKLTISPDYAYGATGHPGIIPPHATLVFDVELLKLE

| remaining activity at 0.1 µM (mTORC2) [%] | mTORC1 (p-S6K) inhibition (mTORC1) | glucose steady state level [4] [mg/dL] | increase of glucose steady state level from baseline [4] | increase of glucose steady state level versus vehicle-receiving animals [4] [fold] | Compound | fat mass (adiposity) [1] | glucose response after insulin challenge (insulin resistance) [2] | glucose response after glucose challenge (glucose intolerance) [3] | plasma free fatty acids [5] | glucose tolerance test ([6]; after 2 weeks) | fasting hyperglycemia ([6]; chronic dosing) |
| --- | --- | --- | --- | --- | --- | --- | --- | --- | --- | --- | --- |
| ~5 | performed identically to rapamycin |  |  |  | CO[C@H]1C[C@@H]2CC[C@@H](C)[C@@](O)(O2)C(=O)C(=O)N2CCCC[C@H]2C(=O)O[C@H]([C@H](C)C[C@@H]2CC[C@@H](OC(=O)C(C)(CO)CO)[C@H](OC)C2)CC(=O)[C@H](C)/C=C(\C)[C@@H](O)[C@@H](OC)C(=O)[C@H](C)C[C@H](C)/C=C/C=C/C=C/1C [Temsirolimus] |  |  |  |  |  |  |
| ~5 |  | ~75 | approx. 55% | 3 | CO[C@H]1C[C@@H]2CC[C@@H](C)[C@@](O)(O2)C(=O)C(=O)N2CCCC[C@H]2C(=O)O[C@H]([C@H](C)C[C@@H]2CC[C@@H](O)[C@H](OC)C2)CC(=O)[C@H](C)/C=C(\C)[C@@H](O)[C@@H](OC)C(=O)[C@H](C)C[C@H](C)/C=C/C=C/C=C/1C [Rapamycin] | statistically significant increase of fat mass | deviates significantly from the response observed with the control animals | deviates significantly from the response observed with the control animals | substantial and statistically significant increase | impaired glucose and pyruvate tolerance tests | induced |
| ~5 | performed identically to rapamycin |  |  |  | CO[C@H]1C[C@@H]2CC[C@@H](C)[C@@](O)(O2)C(=O)C(=O)N2CCCC[C@H]2C(=O)O[C@H]([C@H](C)C[C@@H]2CC[C@@H](OCCO)[C@H](OC)C2)CC(=O)[C@H](C)/C=C(\C)[C@@H](O)[C@@H](OC)C(=O)[C@H](C)C[C@H](C)/C=C/C=C/C=C/1C [Everolimus] |  |  |  |  |  |  |
